Experimental data: patent publication US5753631A, “Intercellular adhesion mediators” (Cytel Corporation, priority 1995, dated 1998)

Columns and labels:
[1] = test system: CVF-induced acute lung injury; assay: Cobra venom factor (CVF)-induced acute lung injury in the rat; type: in vivo; settings: 200 μg prior to CVF (FIG. 16: 0.6 mg/Kg)
Method: Groups of rats were pretreated with either vehicle, SLN-OH (0.6 mg/Kg), or with SLX-OH (0.6 mg/Kg) 5 minutes prior to administration of either CVF or PBS. Each bar represents the mean of 6 animals and vertical lines represent the standard error of the mean.
Groups of rats were pretreated with either vehicle or Z at the indicated doses 5 minutes prior to administration of CVF or PBS. Each point represents the mean of 6 animals and vertical lines represent the standard error of the mean.
The intravenous injection of CVF produces intravascular complement activation which results in lung injury, defined as an increase in neutrophil accumulation within the lung, an increase in pulmonary vascular permeability and in lung hemorrhage. It is likely that intravascular complement activation results in the generation of a wide range of inflammatory mediators. Of particular relevance to the studies described here is generation of the split fifth complement component, C5a, which can stimulate the release of histamine from circulating basophils and tissue mast cells. […] The expression of selectins, including P-selectin, is a necessary first step in the process of leukocyte adherence to vascular endothelium.
Animals were dosed with different oligosaccharide preparations or phosphate buffered saline (PBS) five minutes before administration of cobra venom factor (20 units/Kg, i.v.). Included in this material was an aliquot of ^125 I-bovine serum albumin (0.5 μCi) and ^51 Cr labelled autologous red blood cells (0.5 μCi) for measuring plasma extravasation and hemorrhage respectively. Thirty minutes after administration of the cobra venom factor the animals were anesthetized with ketamine hydrochloride (10 mg/Kg) and exsanguinated via the posterior vena cava. The lung vasculature was then perfused through the right cardiac ventricle with 10 mL of PBS. The lungs were removed and the amount of radioactivity remaining within the tissue assessed with a gamma scintillation counter. Increased pulmonary vascular permeability was measured as the ratio of ^125 I in lung tissue compared with the amount present in 1 mL of venous blood obtained at the time of death. Lung hemorrhage was measured as the ratio of ^51 Cr in lung tissue compared with the amount present in 1 mL of venous blood obtained at the time of death. Neutrophil accumulation in lungs was determined by measuring the myeloperoxidase activity of lungs homogenized in PBS. Myeloperoxidase activity in lung supernatants was assayed by measuring the change in absorbance at 460 nm resulting from decomposition of H2 O2 in the presence of o-dianisidine

[2] = test system: IgG immune complex-induced acute lung injury; assay: IgG immune complex-induced acute lung injury in the rat; type: in vivo, rat (male Long-Evans); settings: conclusion in words
[3] = test system: IgA immune complex induced lung injury; assay: IgA immune complex-induced acute lung injury in the rat; type: in vivo, rat (male Long-Evans)
Method: Groups of rats were dosed with either vehicle, SLN-OH (100 μpg), or with SLX-OH (100 μg) […] post induction of inflammation. Each bar represents the mean of 6 animals and vertical lines represent the standard error of the mean.
Adult male (300 g) specific pathogen-free Long-Evans rats purchased from Charles River Labs (Portage, Mich.) were employed in the studies. For the induction of IgG immune complex pulmonary inflammation rabbit polyclonal IgG rich in antibody to bovine serum albumin (antiBSA) was purchased from Organon Teknika (Westchester, PA). Intraperitoneal ketamine (10 mg/Kg) was administered for anesthesia. 2.5 mg of anti-BSA in a volume of 300 μl was instilled intratracheally via a small intratracheal catheter during inspiration after surgical exposure of the trachea. Intravenous injection of 10 mg BSA was injected intravenously to generate immune complex formation. Trace amounts of ^125 I-BSA and ^51 Cr-RBC were administered with the BSA as markers for plasma and RBC extravasation respectively. Rats were sacrificed 4 h later and lung injury was assessed by the ratio of radiolabelled albumin in the lungs relative to the circulation (permeability), the ratio of RBC in the lungs relative to the circulation (hemorrhage) and the amount of myeloperoxidase activity in a lung homogenate (neutrophil accumulation). For induction of IgA immune complex induced lung injury 1.2 mg of a murine myeloma IgA protein specific for dinitrophenol (DNP) was instilled intratracheally and 3.3 mg DNP-bovine serum albumin injected intravenously. Lung injury was assessed in the same manner described for IgG-induced lung injury.
SLX-OH, Z, the non-fucosylated control oligosaccharide SLN, or an equivalent volume of PBS were injected intravenously in three equally divided doses at 2, 2.5, and 3 h following deposition of immune complexes. This schedule for injections was selected since it coincides with the time during which rapid expression of E-selectin occurs in the pulmonary vasculature.

E-Selectin = target: T1, E-Selectin (Homo sapiens, UniProt P16581); assay: Glycolipid liposome inhibition of HL-60 cell adhesion to IL-1β activated endothelial cells; type: cell-based; settings: liposomes; for inhibition of adhesion of HL-60 cells to activated endothelial cells: 4° C. (FIG. 5); for reduction of HL-60 cell adhesion to activated endothelial cells: 37° C.
T1 construct: adhesion of HL-60 cells
T1 sequence (P16581 22-610): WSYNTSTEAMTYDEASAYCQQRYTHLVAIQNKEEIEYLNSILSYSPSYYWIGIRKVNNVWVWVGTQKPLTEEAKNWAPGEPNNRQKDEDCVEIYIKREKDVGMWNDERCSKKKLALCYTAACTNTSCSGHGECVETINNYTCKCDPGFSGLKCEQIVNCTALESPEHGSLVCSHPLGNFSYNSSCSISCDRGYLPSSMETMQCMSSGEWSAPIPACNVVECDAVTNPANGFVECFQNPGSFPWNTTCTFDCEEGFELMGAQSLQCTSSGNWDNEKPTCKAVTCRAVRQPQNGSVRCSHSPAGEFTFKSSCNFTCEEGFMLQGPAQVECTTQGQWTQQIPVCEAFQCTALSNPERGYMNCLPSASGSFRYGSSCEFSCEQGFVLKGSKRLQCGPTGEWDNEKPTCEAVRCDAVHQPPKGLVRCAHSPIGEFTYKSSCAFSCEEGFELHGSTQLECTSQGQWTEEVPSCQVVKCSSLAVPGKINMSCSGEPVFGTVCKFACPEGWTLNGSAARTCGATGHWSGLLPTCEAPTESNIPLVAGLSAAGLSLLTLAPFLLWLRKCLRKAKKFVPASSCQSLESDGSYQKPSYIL
From the text: This Example describes the preparation of liposomes which contain various biosynthetically produced glycosphingolipids on which the terminal carbohydrate units are either SLe^x, Le^x, or similar but not identical compounds. The ability of the liposomes which contain SLe^x or SLe^x mimetics to block the binding of SLe^x -expressing HL-60 cells and LEC11 cells to endothelial cells that have been stimulated to express E-Selectin by treatment with IL-1β is shown.
Materials: The glycosphingolipids used in this experiment are shown in Table I; they were obtained from the Biomembrane Institute, Seattle, Wash., and were either purified or biosynthetically produced and characterized by NMR and mass spectrometry, as generally described in Hakomori, S. I., et al., J. Biol. Chem., 259:4672 (1984), and Fukushi Y., et al., J. Biol. Chem. 259:10511 (1984), incorporated by reference herein. […] Nonsialylated diLex was similarly synthesized using nLc6 as substrate and the cell line NCI H-69. See Holmes et al., J. Biol. Chem. 260:7619 (1985), incorporated by reference herein. SPG and SH were purified from bovine red blood cells, and nLc6 was produced by chemical removal of the terminal sialosyl residue from SH.
Liposomes containing the glycosphingolipids were formed as follows: 100 μg of glycolipid was added to 300 μg phosphatidylcholine (Sigma, egg yolk) and 500 μg cholesterol (Sigma) in chloroform-methanol (2:1) and the whole solution evaporated to dryness by N2 in 15 ml screwcap tubes.
Passage 3 HUVEC, which had been grown to confluence on a gelatin coated 48 well assay plate (Costar) were used as the source of endothelial cells. The plates were prepared as previously described. Two sets of triplicate wells were left unstimulated as controls. Fourteen sets of triplicates were stimulated with IL-1β at 30 μg/ml in a 0.5 ml volume of EGM-UV. Cells were stimulated for exactly 4 hrs. HL-60 cells and LEC11 cells were cultured as described above.
1. One 48 well Costar cluster dish containing HUVEC grown to confluence on gelatin was removed from the incubator and the medium in each well was removed with a pasteur pipette and replaced either with 0.5 ml fresh EGM-UV medium or with the same medium containing 30 μg/ml IL-1β,and the plate then returned to the incubator for 4 hrs.
2. HL-60 cells and LEC11 cells were harvested and washed in CRPMI. A viable cell count was made using trypan blue. 6×10^6 cells of each cell type were radiolabeled as follows: 3×10^6 cells of each type were placed in each of two 10 ml test tubes and 300 μl of ^51 Cr (450 μCi) (New England Nuclear) was added to each tube. The tubes were allowed to incubate 1 hr. at 37° C. with gentle agitation.
3. Radiolabeled HL-60 and LEC11 cells were washed 3× in CRPMI and pooled into one tube. […]

P-Selectin = target: T2, P-Selectin (Homo sapiens, UniProt P16109); assay: Glycolipid liposome inhibition of HL-60 cell adhesion to activated platelets; type: cell-based; settings: liposomes, FIG. 7
T2 construct: endogenous in cells
T2 sequence (P16109 42-830): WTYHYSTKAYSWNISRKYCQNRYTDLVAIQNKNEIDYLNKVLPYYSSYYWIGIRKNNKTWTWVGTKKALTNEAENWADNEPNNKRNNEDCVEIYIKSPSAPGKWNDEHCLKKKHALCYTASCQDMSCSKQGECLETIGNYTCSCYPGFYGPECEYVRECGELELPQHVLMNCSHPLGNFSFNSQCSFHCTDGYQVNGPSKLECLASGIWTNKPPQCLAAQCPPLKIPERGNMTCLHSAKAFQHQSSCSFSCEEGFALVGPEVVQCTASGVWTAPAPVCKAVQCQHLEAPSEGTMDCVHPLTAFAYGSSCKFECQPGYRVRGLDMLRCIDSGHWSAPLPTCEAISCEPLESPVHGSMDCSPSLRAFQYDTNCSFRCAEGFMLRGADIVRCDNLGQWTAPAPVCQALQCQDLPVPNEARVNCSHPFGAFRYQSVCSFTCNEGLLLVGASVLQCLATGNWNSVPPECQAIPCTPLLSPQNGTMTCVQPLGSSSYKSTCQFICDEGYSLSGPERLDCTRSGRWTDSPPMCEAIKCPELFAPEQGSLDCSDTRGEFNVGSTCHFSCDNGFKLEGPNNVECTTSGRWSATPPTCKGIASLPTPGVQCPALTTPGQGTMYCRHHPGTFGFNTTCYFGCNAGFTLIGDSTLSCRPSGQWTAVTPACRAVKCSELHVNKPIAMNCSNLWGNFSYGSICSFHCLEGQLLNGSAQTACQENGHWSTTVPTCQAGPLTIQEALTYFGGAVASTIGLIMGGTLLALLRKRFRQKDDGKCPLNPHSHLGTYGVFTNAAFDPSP
Method: The assays generally followed the protocol described in Larsen et al., Cell 63: 467-474 (1990), which is incorporated herein by reference.
Glycosphingolipids and liposomes were prepared as described in Example IV. The platelets were prepared as described in Example V, except that blocking of Fc receptors was not performed. HL60 cells were prepared as described above.
1. 20 μl of activated platelet preparation was placed in each of 28 1.5 ml microfuge tubes (14 duplicate samples).
2. 20 μl of the diluted liposomes at […], 5 μg or 2 μg, or 20 μl of the control buffers, were added to the appropriate tube of each duplicate.
3. The platelets were incubated with the liposome preparations for 20 min. at room temp.
4. Neutrophils or HL-60 cells at 2×10^6 cells/ml were each added to one set of liposome-treated platelets. 20 μl of cell suspension were added to each tube.
5. The tubes were mixed and allowed to stand at room temperature for 20 min. Then they were applied to a hemacytometer and the cells were scored as positive (2 or more platelets attached/cell) or negative (less than 2 platelets attached/cell).

Row | Compound | reduction of permeability value ([1]; P<0.001) [%] | reduction of hemorrhage ([1]; P<0.004) [%] | reduction of MPO content ([1]; P<0.006) [%] | effect on IgG immune complex-induced neutrophil accumulation / lung injury [2] | protection assessed by vascular permeability and hemorrhage ([3]; FIG. 20, 100 μg) | effect on IgA immune complex-induced neutrophil accumulation and pathological sequelae ([3]; conclusion in words) | inhibition of adhesion of HL-60 cells to activated endothelial cells (E-Selectin) | reduction of HL-60 cell adhesion to activated endothelial cells (E-Selectin) [%] | inhibition of adhesion of HL-60 cells to activated platelets (P-Selectin)
1 | CC(=O)N[C@H]1[C@H]([C@H](O)[C@H](O)CO)O[C@@](O[C@H]2[C@@H](O)[C@@H](CO)O[C@@H](O[C@H]3[C@H](O[C@@H]4O[C@@H](C)[C@@H](O)[C@@H](O)[C@@H]4O)[C@@H](NC(C)=O)C(O)O[C@@H]3CO)[C@@H]2O)(C(=O)O)C[C@@H]1O (stereo partly drawn) [SLX-OH, NeuAcα2,3Gal,β1 4(Fucα1,3)GlcNAc-OH] | 43 | 41 | 35 | blocked IgG | did not afford any protection from IgA immune complex induced lung injury | not IgA |  |  | 
2 | III^3 V^3 Fuc2 VI^3 NeuAcnLc6 [S-diLe^x] |  |  |  |  |  |  | dramatically inhibited | 70 | dramatically inhibited
3 | III^3 V^3 Fuc2 nLc6 [di-Le^x, reference compound] |  |  |  |  |  |  | minimal inhibition | 40 | minimal inhibition
